Measured values taken from patent US10052359B2, “Composition for enhancing memory and learning function and/or cognitive function” (KIRIN KABUSHIKI KAISHA, priority 2014, dated 2018).
Entries after “also recorded” stand apart in the source; their conditions may differ.

tested on: scopolamine model of poor memory; assay: Y-maze test (spontaneous alternation behavior) in mice given scopolamine; type: in vivo; conditions: 1 μmol/kg to mice; FIG. 9A, 9B
Protocol: FIG. 1A illustrates a summary of methods of evaluating the memory and learning function and the cognitive function. To 6-week-old male CD-1 mice, 1 mg/kg of the peptide extract or 0.1-3 μmol/kg of a synthetic peptide is orally administered forcibly into stomach and 40 minutes later 0.80 mg/kg of scopolamine hydrochloride was administered intraperitoneally to cause memory impairment. 20 minutes after the intraperitoneal administration of scopolamine, the Y-maze test was conducted to evaluate the spontaneous alternation behavior.
Mice originally have a habit of selecting a route different from the route selected immediately before. Therefore a mouse placed in a Y-maze having 3 arms equivalent in width, length, and the like normally enters the arm different from the arm that the mouse entered immediately before. The Y-maze test is a test to evaluate the short-term memory using the habit of mice.
In the Y-maze test, a Y-maze was used as an experimental apparatus having 3 arms each connected at an angle of 120 degrees and each having a length of 25 cm, a wall high of 20 cm, and a floor width of 5 cm.
Mice were placed in the tip of one of the aims in the Y-maze and the orders of the arms that the mice entered when the mice were allowed to search freely for 8 minutes were recorded. The spontaneous alternation behavior is defined as the behavior in which a mouse selects and enters the different arm three times consecutively. […] 10 mice per group were used for the experiment and the average and the standard error were determined. [Examination of Enzymatic Agent]

| Compound | enhancing effect on the memory and learning function |
| --- | --- |
| PVEP (listed as Bos taurus) | had the enhancing effect on the memory and learning function at the similar level to that of the original amino acid sequence KEMPFPKYPVEP |

same assay, conditions: synthetic peptide 0.1-3 μmol/kg orally; scopolamine 0.80 mg/kg i.p.

| Compound | enhancing effect on the memory and learning function and the cognitive function (spontaneous alternation behavior rate) |
| --- | --- |
| N[C@@H](Cc1c[nH]c2ccccc12)C(=O)O [W, tryptophan, reference compound] | had no effects |
| AVPYP (listed as Bos taurus) [casein-derived peptide, tested as synthetic peptide] | enhancement activity on the memory and learning function and the cognitive function |
| GTWY (listed as Bos taurus) [whey-derived peptide, tested as synthetic peptide] | exhibited the activity of enhancing the memory and learning function and the cognitive function in a concentration-dependent manner |
| GYGGVSLP (listed as Bos taurus) [whey-derived peptide, tested as synthetic peptide] | exhibited the activity of enhancing the memory and learning function and the cognitive function in a concentration-dependent manner |
| KEMPFPKYPVEP (listed as Bos taurus) [casein-derived peptide of 12 amino acids, tested as synthetic peptide] | enhancement activity on the memory and learning function and the cognitive function |
| KPTPEGDLEI (listed as Bos taurus) [whey-derived peptide, tested as synthetic peptide] | exhibited the activity of enhancing the memory and learning function and the cognitive function in a concentration-dependent manner |
| SLPQ (listed as Bos taurus) [casein-derived peptide, tested as synthetic peptide] | enhancement activity on the memory and learning function and the cognitive function |
| TWY (listed as Bos taurus) [whey-derived peptide, tested as synthetic peptide] | exhibited the activity of enhancing the memory and learning function and the cognitive function in a concentration-dependent manner |
| TWYS (listed as Bos taurus) [whey-derived peptide, tested as synthetic peptide] | exhibited the activity of enhancing the memory and learning function and the cognitive function in a concentration-dependent manner |
| VAGTWYS (listed as Bos taurus) [whey-derived peptide, tested as synthetic peptide] | exhibited the activity of enhancing the memory and learning function and the cognitive function in a concentration-dependent manner |
| VSLPEW (listed as Bos taurus) [whey-derived peptide, tested as synthetic peptide] | exhibited the activity of enhancing the memory and learning function and the cognitive function in a concentration-dependent manner |
| YPE (listed as Bos taurus) [casein-derived peptide, tested as synthetic peptide] | enhancement activity on the memory and learning function and the cognitive function |
| methionine-tryptophan [MW, reference compound] | had no enhancing effect on the memory and learning function and the cognitive function |
| tryptophan-methionine [WM] | found to have an enhancing effect on the memory and learning function and the cognition function in a concentration-dependent manner; also recorded: enhancement activity on the memory and learning function and the cognitive function |
| tryptophan-tyrosine [WY] | found to have an enhancing effect on the memory and learning function and the cognition function in a concentration-dependent manner; also recorded: enhancement activity on the memory and learning function and the cognitive function |
| tyrosine-tryptophan [YW, reference compound] | had no enhancing effect on the memory and learning function and the cognitive function |

tested on: TNF-α; assay: Anti-inflammatory activity of isolated microglia (TNF-α in supernatant by ELISA after LPS and IFNγ); type: cell-based, mouse; conditions: 12 h pretreatment with 0, 25, 50 or 100 μM synthetic peptide; then LPS 5 ng/ml and IFNγ 0.5 ng/ml for 12 h; FIG. 11
Protocol: Brain tissue homogenate is obtained by treating the brain extirpated from a mouse with papain. After stopping the enzymatic reaction, microglia were allowed to interact with a pan-microglia marker, CD11b antibody (produced from Miltenyi Biotec) magnetically-labeled with microbeads and isolated by the MACS method.
Isolated microglia are cultured for 12 hours in a medium supplemented with various peptides. 5 ng/ml lipopolysaccharide (LPS, SIGMA-ALDRICH) and 0.5 ng/ml interferon γ(IFNγ, R & D systems) were then added and culture was continued for 12 hours. TNF-α contained in the culture supernatant was quantified with an ELISA kit (eBiosceince).
Peptides were synthesized based on the obtained amino acid sequences and the anti-inflammatory effect was evaluated. The isolated microglia are pretreated in a medium supplemented with 0, 25, 50, or 100 μM of a synthetic peptide ([…] (SEQ ID NO: 1), […] (SEQ ID NO: 17), AVPYP (SEQ ID NO: 6), SLPQ (SEQ ID NO: 9), YPE (SEQ ID NO: 12), WM (SEQ ID NO: 14), or WY (SEQ In NO: 13)) for 12 hours. As described above, LPS and IFN-γ were added to the medium and culture was continued for 12 hours. INF-α contained in the culture supernatant was measured by ELISA. The result is illustrated in FIG. 11. In FIG. 11, “CM1” indicates the result of […] (SEQ ID NO: 1), “CM2” indicates the result of […] […]

| Compound | production of TNF-α (anti-inflammatory effect) |
| --- | --- |
| tryptophan-tyrosine [WY] | particularly high anti-inflammatory effect |
